Experimental data taken from paper PMC9505031, “Implementation of QbD Approach to the Development of Chromatographic Methods for the Determination of Complete Impurity Profile of Substance on the Preclinical and Clinical Step of Drug Discovery Studies” (International Journal of Molecular Sciences, 2022).
Read-outs that look alike come from different tables or passages of the source.

Key:
[1] = Chromatographic hydrophobicity index CHI logD determination (UltraCore SuperC18 column); type: physicochemical
Source text: Due to this observation and to better characterise elution conditions for method development, it was decided to determine the chromatographic hydrophobicity index CHI logD of CPL409116 and its impurities by the methodology described by Valko et al.. Chromatographic hydrophobicity index CHI logD has been originally used for high-throughput physicochemical property profiling for rational drug design, where determined values strongly correlate to lipophilicity (logP and/or logD) of molecules.
On a basis of determining lipophilicity described by CHI logD at pH 2.6, 7.4 and 10.5 on ACE Ultracore SuperC18 column more valuable data were obtained in a contest of chromatography interactions molecules with stationary phase extended with their acid-base properties (Table 1). Particularly, strong pH dependence on retention factors has been observed for JAK ImpC and also for JAK07, JAK08, and JAK09. Greater differences and a wider range of CHI logD values, calculated on a base of peaks retention times of compounds, in the lower pH range than in the pH 7.4–10.5 range have been observed. The use of mobile phases with a lower pH would allow obtaining higher chromatographic resolutions and higher selectivity of the analytical method.
For the CHI logD determination, separate solutions of all the tested sample were prepared at a concentration of 1 mM in DMSO. Reference mix solutions have a concentration of 1 mM in DMSO.
The CHI logD for JAK01 and its impurities was determined on an UltraCore 2.5 SuperC18 (2.1 × 50 mm, 2.5 µm, ACE) column with eluent A consisting of formic acid (10 mM, pH 2.6), and ammonium acetate (50 mM) buffers with different concentrations of additives were used to prepare buffer solutions of 7.4, and 10.5, and eluent B consisted ACN [58].

[2] = Solubility in aqueous solutions; type: physicochemical

A chromatographic logD ([1]; pH 2.6, 10 mM formic acid/ACN, read-out: CHILogD pH 2.6) of 3.51, a chromatographic logD ([1]; pH 7.4, 50 mM ammonium acetate/ACN, read-out: CHILogD pH 7.4) of 3.09 and a chromatographic logD ([1]; pH 10.5, 50 mM ammonium acetate/ACN, read-out: CHILogD pH 10.5) of 3.05 were found for `COc1cccc(-c2cc3ncc(C(N)=O)c(N[C@@H]4CCN(c5ccc(C#N)nn5)CC4(C)C)n3n2)n1` [CPL409116] in this work. The “Solubility in aqueous solutions” value ([2]; aqueous solutions) was “practically insoluble” and the solubility ([2]; pH 7.4, aqueous buffer, phosphate buffer with a pH of 7.4) was < 0.1 µg/mL.
